In brackets after ≈: the same amount, converted by molar mass.
Experiments:
Microsomal stability = type: in vitro ADME
Method: (§1) Detailed characterization data was collected for Compound 22. Primary assays were carried out according to Examples 2 and 3, while other assays were carried out according to standard methods.

Aqueous solubility = type: physicochemical; conditions: aqueous medium (not further specified)
Method: as §1

Caco-2 = assay: In vitro permeability Caco-2; type: in vitro ADME
Method: as §1

[1] = tested on: spontaneous DA transients in NAc; assay: GRAB-DA fiber photometry, spontaneous DA transients; type: in vivo, mouse
Method: (§2) For this study, a probe was implanted into the nucleus accumbens (NAc) (FIG. 11A). Following baseline measurements, mice were dosed with vehicle or Compound 22 (10 mg/kg, i.p) followed 40 min later by a single dose of AMPH (2 mg/kg, i.p.). Samples were collected for 2 hr post-dosing. Extracellular dopamine (DA) levels in the dialysate were quantified by HPLC with electrochemical detection (FIG. 11B). […] Compound 22 modulates both spontaneous and reward-related DA release. To confirm these findings in parallel experiments, GPCR-activation based-DA (GRAB-DA) was used, which is a human D2R-GFP chimera sensor that produces fluorescence changes reliably and with sub-second kinetics in response to extracellular DA concentration changes in behaving animals (Sun et al. Cell 2018; 174(2):481-96.e19). Mice were injected with an adeno-associated virus (AAV) carrying GRAB-DA into the (NAc) (FIG. 11C) and allowed to recover for −2 weeks before fiber photometry experiments were performed. In the first pilot experiment, baseline DA release were recorded for 5 min before mice (n=3) were injected with either Compound 22 or vehicle and then recording was continued for 45 min. The rate of spontaneous DA transients was compared in the pre-injection (0-5 min) vs post-injection (35-50 min) periods; there was a significant time x drug interaction: F(1,4)=11.91, P=0.026.

[2] = tested on: extracellular dopamine (DA) in nucleus accumbens; assay: Microdialysis of nucleus accumbens, extracellular dopamine after AMPH; type: in vivo, mouse; conditions: 10 mg/kg i.p., 40 min before AMPH 2 mg/kg i.p.; n=1/group
Method: as §2

GPR119 = target: T1, GPR119 (Homo sapiens, UniProt Q8TDV5); assay: Off-target activity GPR119 (agonist, antagonist, PAM modes); type: cell-based
T1 sequence (Q8TDV5 1-335): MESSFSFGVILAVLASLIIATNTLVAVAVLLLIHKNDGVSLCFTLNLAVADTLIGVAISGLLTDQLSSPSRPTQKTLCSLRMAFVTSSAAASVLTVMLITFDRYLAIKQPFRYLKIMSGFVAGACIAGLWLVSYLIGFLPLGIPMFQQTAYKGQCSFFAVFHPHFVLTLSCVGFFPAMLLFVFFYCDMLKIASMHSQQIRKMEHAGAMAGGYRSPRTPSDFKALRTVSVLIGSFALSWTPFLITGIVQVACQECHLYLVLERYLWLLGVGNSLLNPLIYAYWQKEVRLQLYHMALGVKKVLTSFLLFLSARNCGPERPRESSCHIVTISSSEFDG
Method: as §1

[3] = Plasma and brain pharmacokinetics in mice; type: in vivo; conditions: male, C57BL/6, mouse, 10 mg/kg
Method: Plasma and brain concentrations of Compounds 11, 22, 16, and 24 were determined by LC-MS/MS after IV and PO dosing in male C57BL/6 mice at 10 mg/kg. Data are shown in FIGS. 10A-10D for Compounds 11, 22, 16, and 24, respectively.
as §1

GPR55 = GPR55 (Homo sapiens, UniProt Q9Y2T6); assay: Off-target activity GPR55 (agonist, antagonist, PAM modes); type: cell-based
GPR55, sequence (Q9Y2T6 whole entry, species assumed): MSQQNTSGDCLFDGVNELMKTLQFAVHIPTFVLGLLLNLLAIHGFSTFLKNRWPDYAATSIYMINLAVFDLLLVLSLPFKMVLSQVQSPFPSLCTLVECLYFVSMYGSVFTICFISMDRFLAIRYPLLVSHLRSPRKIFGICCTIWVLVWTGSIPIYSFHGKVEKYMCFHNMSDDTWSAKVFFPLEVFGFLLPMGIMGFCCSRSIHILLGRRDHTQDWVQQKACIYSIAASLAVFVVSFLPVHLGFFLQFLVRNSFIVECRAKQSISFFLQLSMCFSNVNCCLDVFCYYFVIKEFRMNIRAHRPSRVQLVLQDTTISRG
Method: as §1

hERG = hERG (Homo sapiens, UniProt Q12809); assay: hERG activity
hERG, sequence (Q12809 whole entry): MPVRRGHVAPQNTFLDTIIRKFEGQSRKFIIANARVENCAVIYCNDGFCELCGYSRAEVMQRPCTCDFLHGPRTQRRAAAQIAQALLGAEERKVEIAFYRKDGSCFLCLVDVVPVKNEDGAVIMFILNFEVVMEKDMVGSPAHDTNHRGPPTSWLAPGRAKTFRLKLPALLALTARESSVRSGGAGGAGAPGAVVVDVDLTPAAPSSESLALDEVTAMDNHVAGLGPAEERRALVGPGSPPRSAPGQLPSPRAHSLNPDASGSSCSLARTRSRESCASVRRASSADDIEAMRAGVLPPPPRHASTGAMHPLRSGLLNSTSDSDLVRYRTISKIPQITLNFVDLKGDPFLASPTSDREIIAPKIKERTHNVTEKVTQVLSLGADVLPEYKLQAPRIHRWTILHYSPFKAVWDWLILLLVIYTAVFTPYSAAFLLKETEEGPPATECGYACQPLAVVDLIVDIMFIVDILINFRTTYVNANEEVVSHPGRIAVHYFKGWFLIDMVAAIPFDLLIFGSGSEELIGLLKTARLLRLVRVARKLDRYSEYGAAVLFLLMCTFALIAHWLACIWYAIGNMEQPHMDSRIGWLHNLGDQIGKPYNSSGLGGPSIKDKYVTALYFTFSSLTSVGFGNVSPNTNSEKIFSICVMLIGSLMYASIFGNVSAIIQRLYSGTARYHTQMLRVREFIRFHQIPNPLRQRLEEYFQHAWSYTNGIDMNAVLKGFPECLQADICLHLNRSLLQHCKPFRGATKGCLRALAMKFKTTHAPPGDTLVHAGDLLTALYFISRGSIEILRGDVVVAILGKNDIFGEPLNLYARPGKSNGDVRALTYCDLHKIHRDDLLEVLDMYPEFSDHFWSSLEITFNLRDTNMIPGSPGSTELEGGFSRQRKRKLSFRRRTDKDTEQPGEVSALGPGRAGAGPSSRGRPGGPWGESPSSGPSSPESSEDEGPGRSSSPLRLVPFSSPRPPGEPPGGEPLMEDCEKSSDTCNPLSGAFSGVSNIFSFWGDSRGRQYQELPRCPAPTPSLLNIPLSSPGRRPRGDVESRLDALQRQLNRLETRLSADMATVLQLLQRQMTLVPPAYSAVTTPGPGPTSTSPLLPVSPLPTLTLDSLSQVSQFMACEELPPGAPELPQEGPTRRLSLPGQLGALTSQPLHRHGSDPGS
Method: as §1

Male C57Bl6J mice = assay: Spontaneous locomotor activity in activity chamber; type: in vivo, mouse; conditions: mice, compound alone i.p., 90 minutes after dosing, vs vehicle

CC(C)(CO)c1cc(NC(=O)N2CCCN2c2ccc(C(F)(F)F)cc2)no1 [Compound 22, N-(5-(1-hydroxy-2-methylpropan-2-yl)isoxazol-3-yl)-2-(4-(trifluoromethyl)phenyl)pyrazolidine-1-carboxamide]
Microsomal stability, clearance class (Microsomal stability): Low clearance | half-life (Microsomal stability; microsomes, read-out: Microsomal stability t ½): 2 h | solubility (Aqueous solubility): 17.4 µg/mL (≈ 43.6 µM) | In vitro permeability (Caco-2): High | Shape of the spontaneous DA transients ([1]; before and after injection): widening the curve | Rate of spontaneous DA transients ([1]; pre-injection (0-5 min) vs post-injection (35-50 min), n=3): reduced the rate of spontaneous transients | Extracellular DA release after AMPH dosing [2]: reduced extracellular DA release after AMPH dosing | EC50 (GPR119): > 10 µM | IC50 (GPR119): > 10 µM | melting point: 142 to 146 °C | Kp at 24 h ([3]; in vivo, Via oral administration, 3 mice, at 24 h, read-out: Brain to plasma ratio): 0.97 | bioavailability ([3]; plasma, Oral bioavailability): 100% | EC50 (GPR55): > 10 µM | IC50 (GPR55): > 10 µM | IC50 (hERG): > 10 µM | Distance moved / spontaneous locomotor activity (Male C57Bl6J mice): do not exhibit significantly different distance moved compared to the vehicle

Reference: patent US20240158384A1, “CB2 RECEPTOR AGONISTS” (The Board of Trustees of the Leland Stanford Junior …, priority 2020, published 2024)
